Measured values reported in ChEMBL document CHEMBL1134870, “Design and synthesis of novel inhibitors of gelatinase B” (Bioorg Med Chem Lett, 2002).

Columns and labels:
[1] = biological target: Matrix metalloproteinase-9 (Mus musculus, UniProt P41245); assay: Inhibitory concentration was determined against murine gelatinase B
[2] = biological target: Matrix metalloproteinase-9 (Mus musculus) (UniProt P41245); assay: Inhibitory activity against murine gelatinase B at 5 mM was determined
Chain of Matrix metalloproteinase-9 (Mus musculus) (P41245 whole entry): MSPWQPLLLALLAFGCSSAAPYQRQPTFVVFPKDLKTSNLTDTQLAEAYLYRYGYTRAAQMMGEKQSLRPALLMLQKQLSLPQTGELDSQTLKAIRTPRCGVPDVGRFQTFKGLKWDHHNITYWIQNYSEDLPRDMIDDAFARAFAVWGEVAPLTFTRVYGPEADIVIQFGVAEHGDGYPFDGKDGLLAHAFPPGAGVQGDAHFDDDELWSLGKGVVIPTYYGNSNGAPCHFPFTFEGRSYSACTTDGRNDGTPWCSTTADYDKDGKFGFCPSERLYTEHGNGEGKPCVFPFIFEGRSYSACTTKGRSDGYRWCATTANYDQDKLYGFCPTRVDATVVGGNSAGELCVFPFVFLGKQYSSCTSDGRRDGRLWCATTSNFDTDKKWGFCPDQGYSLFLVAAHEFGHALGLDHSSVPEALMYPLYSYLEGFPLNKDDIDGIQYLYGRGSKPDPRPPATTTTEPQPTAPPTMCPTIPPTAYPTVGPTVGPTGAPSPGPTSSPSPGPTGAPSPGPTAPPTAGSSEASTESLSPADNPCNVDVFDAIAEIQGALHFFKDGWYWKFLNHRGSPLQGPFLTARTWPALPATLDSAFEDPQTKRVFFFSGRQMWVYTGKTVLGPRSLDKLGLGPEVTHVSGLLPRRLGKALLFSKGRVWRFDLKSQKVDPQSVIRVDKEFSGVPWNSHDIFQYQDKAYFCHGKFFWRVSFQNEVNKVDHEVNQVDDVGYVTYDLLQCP

Chain of Matrix metalloproteinase-9 (P41245 whole entry): as above

Structure (SMILES) | IC50 [1] | inhibition [2]
NCc1nc2cc(NC(=O)/C=C/c3c(F)cccc3F)ccc2[nH]1 | 75 µM | 
CC(=O)NO |  | < 5%
NCc1nc2cc(N)ccc2[nH]1 | > 500 µM | 
NCc1nc2ccccc2[nH]1 |  | 65%
NCc1cc2cc(NCc3ccccc3OCc3ccccc3)ccc2[nH]1 | 72 µM | 
NCCc1ccccn1 |  | < 5%
NCc1nc2ccc(NCc3ccc(OCc4ccccc4)cc3)cc2[nH]1 | 51 µM | 
NCc1nc2ccc(NCc3ccccc3)cc2[nH]1 | 195 µM | 
NCc1ccccn1 |  | 75%
NCc1nc2ccc(NCc3ccccc3Sc3ccccc3)cc2[nH]1 | 56 µM | 
Oc1ccccn1 |  | < 5%
NCc1nc2ccc(NC(=O)c3ccccc3OCc3ccccc3)cc2[nH]1 | 48 µM | 
NCc1nc2ccc(NCc3ccccc3OCc3ccccc3)cc2[nH]1 | 13 µM | 
O=C(O)c1ccccc1 |  | < 5%
CC(=O)NCc1nc2ccc(NCc3ccccc3OCc3ccccc3)cc2[nH]1 | > 100 µM | 
CC(=O)Nc1nc(C)cs1 |  | < 5%
NCCN |  | < 5%
OCc1nc2ccccc2s1 |  | 85%
NCc1nc2cc(NC(=O)/C=C/c3cccnc3)ccc2[nH]1 | 85 µM | 
NCc1nc2ccc(NC(=O)c3ccc(C(=O)c4ccccc4)cc3)cc2[nH]1 | 46 µM | 
Nc1ccccc1N |  | 10%
OCc1nc2ccccc2[nH]1 |  | 26%
CCNCCN |  | < 5%
NCCNCCN |  | < 5%
CC(=O)N(Cc1ccccc1OCc1ccccc1)c1ccc2nc(CN)[nH]c2c1 | 83 µM | 
CC(=O)C1CCCC1=O (centres undefined) |  | 76%
Cc1nc2cc(NCc3ccccc3OCc3ccccc3)ccc2[nH]1 | > 300 µM | 
OCc1nc2cc(NCc3ccccc3OCc3ccccc3)ccc2[nH]1 | > 100 µM | 
NCc1nc2ccc(NCC3CC=CCC3)cc2[nH]1 (centres undefined) | 92 µM | 
